Assay results published in patent publication US20050176806A1, “Use of substituted cyanopyrrolidines and combination preparations containing them for treating hyperlipidemia and associated diseases” (priority 2002, published 2005).

Test system: patients with a diagnosis of Type 2 diabetes mellitus
Experiment: Evaluation of the Effects of Compound IC on Human Lipid Profiles
Type: in vivo
Conditions: compound IC 100 mg or 200 mg OD for four weeks, compared to placebo
Source text: Evaluation of the Effects of Compound IC on Human Lipid Profiles Sixty (60) patients comprised of male and non-fertile female patients aged at least 30 years with a diagnosis of Type 2 diabetes mellitus of at least three months duration, who have been treated with diet alone for at least one month prior to study entry were selected. The study was broken down into two periods. Period 1 was the four weeks prior to the beginning of the study, with period 2 being four weeks and being the actual study period when patients were treated with compound IC. Accordingly, study entry was Week −4 and the endpoint was after the fourth week of Period 2. Patients were randomized in a ratio of 1:1:1 as follows: compound IC at 200 mg once a day (OD), compound IC at 100 mg OD and placebo. The patients received compound IC 30 minutes before breakfast. There were 5 test days in the study. Patients attended as outpatients for fasting blood sampling at Week −4 (study entry), Week −2 and Week 2 and as inpatients for 24 hours on Week 0 (=baseline) and Week 4 (=endpoint). On the two inpatient test days, the total caloric intake of breakfast, lunch and dinner was standardized and standard test meals were administered in place of breakfast and dinner. Triglycerides, total cholesterol and lipid fractions (LDL, VLDL and HDL) were measured during 24 hours following the breakfast standard meal. […] On the two inpatient test days, patients fasted for at least 7 hours, i.e., no food or drinks (except water) after midnight on the day before the scheduled visit, and attended the clinic at 07.00 h. On each of the two test days, the total caloric intake during 24 hours was standardized and standard test meals were administered for breakfast (about 08.00 h) and dinner (about 18.00 h). Lunch was taken at approximately 13.00 h. On Day 1, no compound IC was administered but at Week 4, patients took compound IC as normal, 30 minutes before the standard breakfast. Triglycerides, total cholesterol and lipid fractions (LDL, VLDL and HDL) were evaluated. Triglycerides, total cholesterol and HDL were measured and LDL and VLDL calculated according to the method of Friedewald et al., “Estimation of the Concentration of Low-Density Lipoprotein Cholesterol Without the Use of the Preparative Centrifuge”, Clin. Chem., Vol. 18, No. 6, pp. 499-502 (1972).

[1] = calculated according to Friedewald et al.
[2] = measured during 24 hours following breakfast standard meal

N#C[C@@H]1CCCN1C(=O)CNC12CC3CC(CC(O)(C3)C1)C2 [compound IC]
markedly lowered: levels of LDL [1] | levels of VLDL [1] | levels of total cholesterol [2] | levels of triglyceride [2]
